In general, IC50 refers to the point on the concentration scale where inhibition reaches its midpoint.

A short description of the test: Antagonist activity at human P2Y12 receptor assessed as inhibition of ADP-induced platelet-rich plasma aggregation by turbidimetric method.
Turning to `CCOC(=O)N1CCN(C(=O)[C@H](CCC(=O)O)NC(=O)c2cc(OCCN)cc(-c3ccccc3)n2)CC1` [(4S)4-({[4-(2-Aminoethoxy)6-phenylpyridin-2-yl]carbonyl}-amino)5-[4-(ethoxycarbonyl)iperazin-1-yl]-5-oxopentanoicAcid], the IC50 amounted to 7.5 µM. With `CCCCCOC(=O)N1CCN(C(=O)[C@H](CCC(=O)O)NC(=O)c2cc(OCCO)cc(-c3ccccc3)n2)CC1` [(4S)4-({[4-(2-Hydroxyethoxy)6-phenylpyridin-2-yl]carbonyl}-amino)5-oxo-5-{4-[(pentyloxy)carbonyl]piperazin-1-yl}pentanoicAcid] the figure was 11.5 µM; with `CCCCCOC(=O)N1CCN(C(=O)[C@H](CCC(=O)O)NC(=O)c2cc(OCCOC)cc(-c3ccccc3)n2)CC1` [(4S)4-({[4-(2-Methoxyethoxy)6-phenylpyridin-2-yl]carbonyl}amino)5-oxo-5-{4-[(pentyloxy)carbonyl]piperazin-1-yl}pentanoic Acid], 4.3 µM.

As to `CCCCCOC(=O)N1CCN(C(=O)[C@H](CCC(=O)O)NC(=O)c2cc(N3CCC(CN)CC3)cc(-c3ccccc3)n2)CC1` [(4S)4-[({4-[4-(Aminomethyl)piperidin-1-yl]-6-phenylpyridin-2-yl}carbonyl)amino]-5-oxo-5-{4-[(pentyloxy)carbonyl]piperazin-1-yl}pentanoic Acid], the half-maximal inhibitory concentration (IC50) came out at 0.77 µM. In the case of `CCCCCOC(=O)N1CCN(C(=O)[C@H](CCC(=O)O)NC(=O)c2cc(N3CCC(COC)CC3)cc(-c3ccccc3)n2)CC1` [(4S)4-[({4-[4-(Methoxymethyl)piperidin-1-yl]-6-phenylpyridin-2-yl}carbonyl)amino]-5-oxo-5-{4-[(pentyloxy)carbonyl]piperazin-1-yl}pentanoic Acid], the IC50 came out at 3.9 µM. For `CCCCOc1cc(C(=O)N[C@@H](CCC(=O)O)C(=O)N2CCN(C(=O)OCC)CC2)nc(-c2ccccc2)c1` [(4S)4-{[(4-Butoxy-6-phenylpyridin-2-yl)carbonyl]amino}-5-[4-(ethoxycarbonyl)iperazin-1-yl]-5-oxopentanoic Acid], the IC50 is 33.9 µM.

`CCCCCOC(=O)N1CCN(C(=O)[C@H](CCC(=O)O)NC(=O)c2cc(OCCCC)cc(-c3ccccc3)n2)CC1` [(4S)4-{[(4-Butoxy-6-phenylpyridin-2-yl)carbonyl]amino}-5-oxo-5-{4-[(pentyloxy)carbonyl]piperazin-1-yl}pentanoic Acid]: the IC50 is 28.4 µM.

Turning to `CCCOC(=O)N1CCN(C(=O)[C@H](CCC(=O)O)NC(=O)c2cccc(-c3ccccc3)n2)CC1` [(4S)5-Oxo-4-{[(6-phenylpyridin-2-yl)carbonyl]amino}-5-[4-(propoxycarbonyl)iperazin-1-yl]pentanoic Acid], the half-inhibitory concentration (IC50) was determined as 62 µM. As to `CCCCCOC(=O)N1CCN(C(=O)[C@H](CCC(=O)O)NC(=O)c2cc(OC3CCNCC3)cc(-c3ccccc3)n2)CC1` [(4S)5-Oxo-5-{4-[(pentyloxy)carbonyl]piperazin-1-yl}-4-({[6-phenyl-4-(piperidin-4-yloxy)yridin-2-yl]carbonyl}amino)entanoicAcid], the half-maximal inhibitory concentration (IC50) worked out at 0.55 µM. With `Cc1cccc(N2CCN(C(=O)[C@H](CCC(=O)O)NC(=O)c3cccc(-c4ccccc4)n3)CC2)c1` [(4S)5-[4-(3-Methylphenyl)piperazin-1-yl]-5-oxo-4-{[(6-phenylpyridin-2-yl)carbonyl]amino}pentanoicAcid], the IC50 was > 100 µM.

`CCCCOC(=O)N1CCN(C(=O)[C@H](CCC(=O)O)NC(=O)c2cc(OCCOC)cc(-c3ccccc3)n2)CC1` [(4S)5-[4-(Butoxycarbonyl)iperazin-1-yl]-4-({[4-(2-methoxyethoxy)6-phenylpyridin-2-yl]carbonyl}amino)5-oxopentanoicAcid]: the 50% inhibitory concentration (IC50) worked out at 4.4 µM. `CCCCOC(=O)N1CCN(C(=O)[C@H](CCC(=O)O)NC(=O)c2cc(OCCCC)cc(-c3ccccc3)n2)CC1` [(4S)5-[4-(Butoxycarbonyl)iperazin-1-yl]-4-{[(4-butoxy-6-phenylpyridin-2-yl)carbonyl]amino}-5-oxopentanoic Acid]: the half-inhibitory concentration (IC50) came to 26.9 µM.

These data come from BindingDB's records for doi:10.1016/j.bmcl.2009.06.075 (Pfizer, 2009).
